The test system of one data set is OPM-2. As to the kind of experiment: XTT cell growth inhibition, OPM-2. In kind it is cell-based. Conditions: Homo sapiens, OPM-2, read-out: IC50 (nM), OPM-2. For orientation: Tetrazolium dyes change colour on reduction, which living cells bring about.
The next data set deals with RL. As to the kind of experiment: XTT cell growth inhibition, RL. The settings on record: Homo sapiens, read-out: IC50 (nM), RL. In kind it is cell-based.
The next data set deals with HS-27A. As to the kind of experiment: XTT cell growth inhibition, HS-27A. In kind it is cell-based. Conditions: Homo sapiens, read-out: IC50 (nM), HS-27A.
The subject of data set [1] is CAG myeloma cell lines. As to the kind of experiment: Annexin V staining, CAG. In kind it is cell-based, human. Conditions: 24 hours treatment. From the text: In early apoptotic cells, the membrane phospholipids phosphatidylserine (PS) is translocated from the inner to the outer leaflet of the plasma membrane, thereby exposing PS to the external cellular environment. Annexin V is a 35-36 kD Ca^2+ dependent phospholipids-binding protein that has a high affinity for PS, and binds to cells with exposed PS. In conjunction with a vital dye such as 7-amino-actinomycin (7-AAD) staining dead cells, this assay allows to identify early apoptotic cells. […] Note that X-axis is Annexin staining and Y-axis is 7-AAD staining.

In data set [2] the test system is human mammary carcinoma MX-1 xenograft. As to the kind of experiment: MX-1 xenograft in nude mice. Conditions: mouse, in vivo.
Another data set concerns MDA MB435. As to the kind of experiment: XTT cell growth inhibition, MDA MB435. In kind it is cell-based. Conditions: Homo sapiens, MDA-MB-435, read-out: IC50 (nM), MDA MB435.
The test system of another data set is MRC-5. As to the kind of experiment: XTT cell growth inhibition, MRC-5. Conditions: Homo sapiens, MRC5, read-out: IC50 (nM), MRC-5. In kind it is cell-based, human.
Data set [3] relates to CAG myeloma cell lines. As to the kind of experiment: Cell cycle analysis (propidium iodide DNA staining), CAG. Conditions: 31.25 nM. In kind it is cell-based, human. An excerpt:
CAG myeloma cell lines were used.

Another data set has as its system RPMI8226 myeloma cells. As to the kind of experiment: Pulse exposure, washout and cell count. In kind it is cell-based, human.
For data set [4], the system named is human lung carcinoma xenograft (A549). As to the kind of experiment: A549 xenograft in nude mice. Conditions: 29: after two more doses; dEpoB: 30 mg/kg, Q2Dx6.
For a further data set, the system named is caspase 3. As to the kind of experiment: Caspase 3 activation by Western blot. In kind it is cell-based, human. Conditions: myeloma cells. An excerpt:
It is not clear whether caspase is involved in this process. Firstly, we investigated the activation of caspase 3, an effector caspase in the caspase pathway, in myeloma cells, by Western blot. […] Immunohistochemical staining of CAG myeloma cells using antibody specific to cleaved caspase-3 was used to show cytoplasmic and perinuclear localization features in apoptotic cells. […] Secondly, we attempted to assay the activity of caspase 8 and 9, initiator caspase in the caspase pathway, by fluorometric method. […] Note that increased caspase 9 activity was more prominent than caspase 8. The signals triggering the activation of caspase 8 or 9 are actively under investigation.
In general terms: In western blotting, separated proteins are transferred to a membrane and probed.

The subject of data set [5] is myeloma cell lines (RPMI8226, CAG). As to the kind of experiment: XTT cell proliferation, myeloma cell lines. In kind it is cell-based, human. Conditions: Homo sapiens, RPMI-8226, read-out: IC50, myeloma cell lines (RPMI8226, CAG).
A further data set is described as follows: in vitro. The settings on record: human, s9.
Data set [6] is described as follows: Octanol-water partition (POW) number by HPLC. In kind it is physicochemical. The settings on record: HPLC estimate, pH 7.4 buffer; read-out: Lipophilicity octanol/water partition (POW). On the procedure:
Determination of partition of octanol-water (POW) number. An HPLC method is used to estimate octanol-water partition. An Agilent 1100 HPLC system is used with an eclipse XDB C18 column 4.6×250 mm with a mobile phase of 60% acetonitrile/40% 25 mM potassium phosphate buffer at pH 7.4 with a flow rate of 0.8 ml per min. and the eluent is monitored at 250 nm. The standards used are benzyl alcohol, acetophenone, benzophenone, naphthalene, diphenyl ether and dibenzyl with known POW of […] respectively. Sodium dichromate is used to evaluate time zero which is 2.5 min and the retention times for the standards are 3.9, 5.4, 10.6, 14, 18.7 and 19.8 min, respectively. The k value is calculated by the formula of k=(trt−t0)/t0. Linear regression of log k vs. log POW gives a straight line with r^2=0.966. This graph is used to evaluate the POW value of the epothilone analogs.

For the next data set, the system named is H929. As to the kind of experiment: XTT cell growth inhibition, H929. In kind it is cell-based. Conditions: Homo sapiens, NCI-H929, read-out: IC50 (nM), H929.
Data set [7] has as its system human xenografts in nude mice, such as MX-1. The settings on record: mouse, in vivo.

Structures are written as SMILES.

Procedure for in vitro: Stability of epothilones in mouse and in human liver S9 fraction. The stability study was carried out with a fully automated HPLC system which consisted of a Prospekt-2 (Spark Holland, Netherlands) sample preparation system and an Agilent 1100 HPLC system. Briefly, the Prospekt 2 picked up a C8 extraction cartridge and washed it with acetonitrile and water. The Agilent autosampler, set at 37° C., picked up 20 μl of the sample, loaded it onto the cartridge, washed it with water, then the Prospekt-2 diverted the mobile phase stream through the extraction cartridge onto the analytical column, Reliance Stable Bond C8 4×80 mm with guard column (MacMod, Chadds Ford, Pa.) and the eluent was monitored at 250 nm. […] Sample preparation involved the addition of equal volumes of plasma to PBS for a total volume of 300-400 μl, filtered, and the addition of 0.5-2 μl of the substrate (20 mM) to achieve about 30-50 mAU at 250 nm in the HPLC analysis. For pooled human liver microsome S9 fraction (Xeno Tech, Lenex, Kans.), 20 μl (400 μg) or S9 fraction was mixed with 280 μl of PBS then proceeded as above. The sampling period was controlled by the autosampler and peak area data were collected to compare the rate of disappearance of the parent compound.
Stability of epothilones in mouse and in human liver S9 fraction: The stability study was carried out with a fully automated HPLC system which consisted of a Prospekt-2 (Spark Holland, Netherlands) sample preparation system and an Agilent 1100 HPLC system. Briefly, the Prospekt 2 picked up a C8 extraction cartridge and washed it with acetonitrile and water. The Agilent autosampler, set at 37° C., picked up 20 μl of the sample, loaded it onto the cartridge, washed it with water, then the Prospekt-2 diverted the mobile phase stream through the extraction cartridge onto the analytical column, Reliance Stable Bond C8 4×80 mm with guard column (MacMod, Chadds Ford, Pa.) and the eluent was monitored at 250 nm. […] Sample preparation involves the addition of equal volumes of plasma to PBS for a total volume of 400 μl, filtered, and the addition of 0.5-2 μl of the substrate (20 mM) to achieve about 30-50 mAU at 250 nm in the HPLC analysis. For pooled human liver microsome S9 fraction (Xeno Tech, Lenex, Kans.), 20 μl (400 μg) or S9 fraction was mixed with 280 μl of PBS then proceeds as above. The sampling period was controlled by the autosampler and peak area data were collected to compare the rate of disappearance of the parent compound.

Regarding `C/C1=C/CC(/C(C)=C/c2csc(C)n2)OC(=O)C[C@H](O)C(C)(C)C(=O)[C@H](C)[C@@H](O)[C@@H](C)CCC1` (some centres unmarked) [Compound 1, 12,13-desoxyepothilone B, reference compound], the half-inhibitory concentration (IC50) is 38.9 ± 3.3 nM in the data set with OPM-2; 90 ± 11 nM with RL; 100 ± 10 nM in the data set on HS-27A; 7.8 ± 4.2 nM in the data set with MDA MB435; 8.2 ± 4.3 nM in the data set with MRC-5; 36.7 to 61.3 nM in data set [5]. Also, in the data set with H929, the IC50 was 42.8 ± 4.5 nM. Moreover, the “Apoptosis (Annexin V / 7-AAD)” value in the data set on CAG myeloma cell lines [1] is “majority of cells either enter apoptosis or are dead”. Moreover, the “Changes of body weight (%) on day 4 after stopping administration” value in [2] is reported as −25.3 ± 2.1%. In addition, the “Changes of body weight (%) on day 8 after stopping administration” value in [2] is −9.1 ± 4.1%. Besides, in the data set with CAG myeloma cell lines [3], the Cell cycle arrest result is recorded as “absolutely blocked cell cycle at G2M phase”. The “Decrease of the number of cells from input” value with RPMI8226 myeloma cells (4-8 hrs exposure, washout, incubation up to 48 hrs) is reported as “slowed cell expansion”. The “Cell death after pulse exposure” value in the data set with RPMI8226 myeloma cells (24 hrs exposure) was “all cells being dead by 48 hrs”. Besides, the “Decrease of tumor cell numbers” value in the data set with RPMI8226 myeloma cells (one hour exposure, washout, 48 hrs) is “reduced but did not prevent tumor cell expansion”. Besides, in [4], the Tumor eradication entry is “no tumor eradication”. The “Cleaved caspase 3 (Western blot)” value with caspase 3 is recorded as “increased 17 kd cleaved caspase 3”. In addition, the half-life in the data set “in vitro” was 1 ± 0.1 h. The chromatographic logP in data set [6] is 4.4. Further, the “Dose accomplishing complete suppression of tumor in a variety of xenografts” value in data set [7] is recorded as 30 mg/kg. The “Maximal b.w. % drop without death” value in [7] came to 32%.

Usually IC50 stands for the concentration needed to halve the response being measured. A word on the half-life: it is the time needed for the level to fall by half in the phase considered.
